≈ marks a conversion by molar mass, not a printed value. Where “and” joins values, the source holds several entries; their conditions need not be identical. Equal entries are not always repeated.
Key:
SARS-CoV-2 [1] = format: cell-based
SARS-CoV-2 [2] = assay: microbe, parasite or virus in culture; format: cell-based; conditions: Severe acute respiratory syndrome coronavirus 2, Vero C1008; Vero E6 cells, observed CPE, dose based on NIC content
MERS-CoV = assay: microbe, parasite or virus in culture; format: cell-based; conditions: Middle East respiratory syndrome-related coronavirus, Vero C1008, read-out: EC50 dose for MERS-CoV
[3] = Size exclusion chromatography of hLYS aggregation before and after spray drying and nebulization; format: physicochemical; conditions: not nebulized
[4] = tested on: methicillin-resistant S. aureus strain Mu50; assay: Resazurin-based microbroth dilution assay; format: cell-based; conditions: S. aureus Mu50, hLYS alone
[5] = FTIR-ATR secondary structure analysis of hLYS; format: physicochemical
[6] = Particle size distribution by laser diffraction (dry powder and reconstituted suspension); conditions: after air jet milling (micronized)

Which results are given for `O=C(Nc1ccc([N+](=O)[O-])cc1Cl)c1cc(Cl)ccc1O` [NIC-M, 5-Chloro-N-(2-chloro-4-nitrophenyl)salicylamide]?
inhibitory activity against SARS-CoV-2 compared to solubilized NIC (SARS-CoV-2 [1]; NIC dose of 0.125 μg/mL, quantified viral particles): significantly improved activity compared to solubilized NIC; EC50 (SARS-CoV-2 [2]): 0.03 µg/mL (≈ 0.0917 µM); EC50 (MERS-CoV): 0.016 µg/mL (≈ 0.0489 µM)

What does the source list for “hLYS: recombinant human lysozyme (InVitria)”?
Fragment [3]: 0.7%; HMW [3]: 17.2%; Monomer [3]: 82.1%; activity against SARS-CoV-2 (SARS-CoV-2 [1]; hLYS alone): appeared to exhibit activity against SARS-CoV-2; inhibitory activity [4]: No inhibitory activity; Anti-parallel β-sheet ([5]; 1618-1625 cm^−1): 21.7%; Parallel β-sheet ([5]; 1633-1637 cm^−1): 0.7%; α-helix ([5]; 1653 cm^−1): 57.6%; Turns ([5]; 1678-1680 cm^−1): 20.2%

Which results are given for `O=C(Nc1ccc([N+](=O)[O-])cc1Cl)c1cc(Cl)ccc1O` [niclosamide, 5-Chloro-N-(2-chloro-4-nitrophenyl)salicylamide]?
X50 diameter [6]: 2.2 μm; X90 diameter [6]: 4.2 μm and 4.1 μm
